Results taken from US20140017223A1, “Pharmaceutical Compositions Comprising A Pancreatic Enzyme Preparation With Viral Infectivity Reduced Below A Significant Level And Methods Of Preparing And Using The Same” (Aptalis Pharma Canada Inc., priority 2010, published 2014).

Tested on: Endogenous PPV
Assay: Inactivation of endogenous PPV of PEP by BPL, chloroform/PEG extraction method (Example 4)
Format: cell-based, porcine parvovirus (PPV)
Settings: for Detected PPV Titer: 0*=below detection limit of 63 FFID50/g PEP
Description: Pancrelipase powders from 2 different lots were each dissolved in 100 mM Tris, pH=8.3, at a concentration of 100 mg/ml. Two ml non-purified PPV viral stock (prepared using standard protocols (Arella et al., Physicichemical properties, production, and purification of parvoviruses. 1990, In Tijssen, P. (ed.), CRC handbook of parvoviruses. Boca Raton, Fla.: CRC Press, 11-30)) were added to 38 ml of the pancrelipase solution. The virus was mixed with the PEP using slow shaking at room temperature for one day. Aliquots were taken from the PPV-spiked pancrelipase stocks and each was incubated with different concentrations of BPL (available from Sigma-Aldrich, St. Louis, Mo.) (except the control) for 48 hours at room temperature (20° C.). The level of viral inactivation was measured by the titration of PPV infectivity using serial dilutions of 1,000 times or more since the titer of spiked virus was high. Determination of the FFID50 was performed using the fluorescence assay as described in the PPV FFID-infectivity assay of U.S. Patent Publication No. 2009/0226414.
The experiment described in Example 1 was repeated except no additional PPV was added. Like Example 3, the infectivity assay was performed after PEG/chloroform purification.

[1] = PEP # 1, endogenous PPV 3.20 × 10^3, 0.10% (v/v) BPL
[2] = PEP # 1, endogenous PPV 3.20 × 10^3, 0.25% (v/v) BPL
[3] = PEP # 2, endogenous PPV 0.10 × 10^3, 0.04% (v/v) BPL
[4] = PEP # 2, endogenous PPV 0.10 × 10^3, 0.10% (v/v) BPL
[5] = PEP # 2, endogenous PPV 0.10 × 10^3, 0.25% (v/v) BPL
[6] = PEP # 3, endogenous PPV 6.40 × 10^3, 0.10% (v/v) BPL
[7] = PEP # 3, endogenous PPV 6.40 × 10^3, 0.25% (v/v) BPL
[8] = PEP # 4, endogenous PPV 0.20 × 10^3, 0.04% (v/v) BPL
[9] = PEP # 4, endogenous PPV 0.20 × 10^3, 0.10% (v/v) BPL
[10] = PEP # 4, endogenous PPV 0.20 × 10^3, 0.25% (v/v) BPL

O=C1CCO1 [BPL, Beta-propiolactone]
0.50 × 10^2 FFID50/g: Detected PPV Titer (PEP # 1, endogenous PPV 3.20 × 10^3, 0.04% (v/v) BPL)
< 0* FFID50/g: Detected PPV Titer [1] | Detected PPV Titer [2] | Detected PPV Titer [3] | Detected PPV Titer [4] | Detected PPV Titer [5] | Detected PPV Titer [7] | Detected PPV Titer [8] | Detected PPV Titer [9] | Detected PPV Titer [10]
0.07 × 10^2 FFID50/g: Detected PPV Titer [6]
10^3 FFID50/g: PPV Titer reduction [1] | PPV Titer reduction [2] | PPV Titer reduction [3] | PPV Titer reduction [4] | PPV Titer reduction [5] | PPV Titer reduction [6] | PPV Titer reduction [7] | PPV Titer reduction [8] | PPV Titer reduction [9] | PPV Titer reduction [10]
4.00 × 10^2 FFID50/g: Detected PPV Titer (PEP # 3, endogenous PPV 6.40 × 10^3, 0.04% (v/v) BPL)
